Literature values as cited in patent US20240216329A1, “PUTRESCINE TOPICAL FORMULATIONS” (VIVIER CANADA INC., priority 2017, published 2024).

Tests used:
scar fibroblasts = conditions: human harvested scars
[1] = system: collagen cross-linking (fibroblast tissue transglutaminase); conditions: in vitro and in vivo

collagen cross-linking [1]: reduce collagen cross-linking
Compound: NCCCCN [putrescine, 1,4-diaminobutane]
apoptosis of scar fibroblasts (scar fibroblasts): increase in apoptosis of scar fibroblasts
barrier function of the epidermis (epidermis of eroded skin; eroded skin, topical): increasing its barrier function
thickness of the stratum lucidum / inner strata of epidermis (epidermis of eroded skin; stratum lucidum in animals, inner strata of human epidermis): increasing
